Assay results taken from US6960608B2, “Fused indazoles and indoles and their use for the treatment of glaucoma” (Alcon, Inc., priority 2001, dated 2005).

Columns and labels:
[1] = tested on: lasered (hypertensive) eyes of conscious cynomolgus monkeys; experiment: Acute IOP response in lasered (hypertensive) eyes of conscious cynomolgus monkeys; type: in vivo, cynomolgus monkey; settings: 300 μg topical, lasered eye
Experimental: Intraocular pressure (IOP) was determined with an Alcon Pneumatonometer after light corneal anesthesia with 0.1% proparacaine. Eyes were washed with saline after each measurement. After a baseline IOP measurement, test compound was instilled in one 30 μL aliquot to the right eyes only of nine cynomolgus monkeys. Vehicle was instilled in the right eyes of six additional animals. Subsequent IOP measurements were taken at 1, 3, and 6 hours. A compound is considered efficacious in this model of ocular hypertension if there is a decrease in the baseline IOP of the lasered eye (O.D.) of at least 20% following topical administration.

5-HT2 receptor = target: T1, 5-HT2 receptor (Rattus norvegicus, UniProt P14842); experiment: 5-HT2 functional assay: phosphoinositide (PI) turnover assay; type: cell-based; settings: for Emax: A7R5, read-out: Efficacy (Emax, %)
T1 construct: A7r5 rat vascular smooth muscle cells; endogenous in cells; host or cells: A7r5 rat vascular smooth muscle cells
T1 sequence (P14842 whole entry): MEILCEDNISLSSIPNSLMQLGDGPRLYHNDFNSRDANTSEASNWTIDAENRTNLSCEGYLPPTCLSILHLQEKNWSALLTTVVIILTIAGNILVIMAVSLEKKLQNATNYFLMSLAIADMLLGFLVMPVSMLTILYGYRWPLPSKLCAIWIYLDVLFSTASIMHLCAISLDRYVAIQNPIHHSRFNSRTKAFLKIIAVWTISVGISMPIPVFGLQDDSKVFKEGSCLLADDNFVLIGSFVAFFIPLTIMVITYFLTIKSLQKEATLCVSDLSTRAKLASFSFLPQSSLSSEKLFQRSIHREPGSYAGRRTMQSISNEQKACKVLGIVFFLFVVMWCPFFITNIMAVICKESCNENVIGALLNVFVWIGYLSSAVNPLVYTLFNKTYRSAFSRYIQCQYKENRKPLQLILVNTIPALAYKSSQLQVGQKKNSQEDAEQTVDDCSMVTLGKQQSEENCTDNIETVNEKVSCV
Experimental: The relative agonist activity of serotonergic compounds at the 5-HT2 receptor can be determined in vitro using the ability of the compounds to stimulate the production of [^3H]inositol phosphates in [^3H]myo-inositol-labeled A7r5 rat vascular smooth muscle cells by their ability to activate the enzyme phospholipase C. These cells are grown in culture plates, maintained in a humidified atmosphere of 5% CO2 and 95% air and fed semi-weekly with Dulbecco's modified Eagle medium (DMEM) containing 4.5 g/L glucose and supplemented with 2 mM glutamine, 10 μg/ml gentamicin, and 10% fetal bovine serum. For the purpose of conducting the phosphoinositide (PI) turnover experiments, the A7r5 cells are cultured in 24-well plates as previously [J. Pharmacol. Expt. Ther. 286, 411 (1998)]. Confluent cells are exposed for 24-30 hrs to 1.5 μCi [^3H]-myo-inositol (18.3 Ci/mmol) in 0.5 mL of serum-free medium. Cells are then rinsed once with DMEM/F-12 containing 10 mM LiCl prior to incubation with the test agent (or solvent as the control) in 1.0 mL of the same medium for 1 hr at 37° C., after which the medium is aspirated and 1 mL of cold 0.1 M formic acid added to stop the reaction. The chromatographic separation of [^3H]-inositol phosphates ([^3H]-IPs) on an AG-1-X8 column is performed as previously described [J. Pharmacol. Expt. Ther. 286, 411 (1998)] with sequential washes with H2O and 50 mM ammonium formate, followed by elution of the total [^3H]-IPs fraction with 1.2 M ammonium formate containing 0.1 M formic acid. The eluate (4 mL) is collected, mixed with 15 ml scintillation fluid, and the total [^3H]-IPs determined by scintillation counting on a beta-counter. Concentration-response data are analyzed by the sigmoidal fit function of the Origin Scientific Graphics software (Microcal Software, Northampton, MA) to determine agonist potency (EC50 value) and efficacy (Emax).

Row | Structure (SMILES) | Percent Change in IOP ± SEM ([1]; 1 hour after dose) | Percent Change in IOP ± SEM ([1]; 3 hours after dose) | Percent Change in IOP ± SEM ([1]; 6 hours after dose) | melting point | EC50 (5-HT2 receptor) | Emax (5-HT2 receptor)
1 | CC(N)Cn1nc2c3c(cc(O)cc31)CCC2.Cl.Cl (stereo not drawn) [Example 1, 2-(2-Aminopropyl)-2,6,7,8-tetrahydro-benzo[cd]indazol-4-ol dihydrochloride] | −5.9 ± 2.69% | −20.0 ± 3.54% | −21.6 ± 4.91% | 286 to 288 °C | 374 nM | 85%
2 | CC(N)Cn1nc2c3c(ccc(O)c31)CCC2.Cl.Cl (stereo not drawn) [Example 2, 2-(2-Aminopropyl)-2,6,7,8-tetrahydro-benzo[cd]indazol-3-ol dihydrochloride] |  |  |  | 284 to 286 °C | 1440 nM | 55%
